{
  "source": "patent US8192962B2",
  "about": "“Processes for detecting toxic substances” (Daikin Industries, Ltd., priority 2001, dated 2012)",
  "tested_on": "DNA repair protein genes",
  "experiment": "DNA chip mRNA expression in yeast, DNA repair protein genes (Table 3)",
  "format": "cell-based, Saccharomyces cerevisiae S288C",
  "conditions": "incubated two hours, concentrations as in the 1st table",
  "method_in_brief": "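Chemical exposure: 2 h, log-phase S. cerevisiae S288C, YPD, 25° C., dose set to inhibit growth without death. Profiling: mRNA labeled by reverse transcription with Cy3- or Cy5-dUTP, hybridized to whole-genome array. Output: fluorescence ratio against untreated culture.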",
  "data": [
    {"smiles": "C=CC=O", "note": "[(14), acrolein]", "values": [
      {"measurement": "The level of expressed mRNA in the presence of chemical substance/The level of expressed mRNA in the absence of chemical substance", "setting": "yeast gene YAL015C", "result": 1.6},
      {"measurement": "The level of expressed mRNA in the presence of chemical substance/The level of expressed mRNA in the absence of chemical substance", "setting": "yeast gene YAR007C", "result": 1.4},
      {"measurement": "The level of expressed mRNA in the presence of chemical substance/The level of expressed mRNA in the absence of chemical substance", "setting": "yeast gene YBL019W", "result": 1.1},
      {"measurement": "The level of expressed mRNA in the presence of chemical substance/The level of expressed mRNA in the absence of chemical substance", "setting": "yeast gene YBR073W", "result": 1.0},
      {"measurement": "The level of expressed mRNA in the presence of chemical substance/The level of expressed mRNA in the absence of chemical substance", "setting": "yeast gene YBR272C", "result": 1.0},
      {"measurement": "The level of expressed mRNA in the presence of chemical substance/The level of expressed mRNA in the absence of chemical substance", "setting": "yeast gene YCR014C", "result": 1.0},
      {"measurement": "The level of expressed mRNA in the presence of chemical substance/The level of expressed mRNA in the absence of chemical substance", "setting": "yeast gene YDL017W", "result": 1.3},
      {"measurement": "The level of expressed mRNA in the presence of chemical substance/The level of expressed mRNA in the absence of chemical substance", "setting": "yeast gene YDL059C", "result": 4.7},
      {"measurement": "The level of expressed mRNA in the presence of chemical substance/The level of expressed mRNA in the absence of chemical substance", "setting": "yeast gene YDL200C", "result": 1.8},
      {"measurement": "The level of expressed mRNA in the presence of chemical substance/The level of expressed mRNA in the absence of chemical substance", "setting": "yeast gene YDR054C", "result": 1.1},
      {"measurement": "The level of expressed mRNA in the presence of chemical substance/The level of expressed mRNA in the absence of chemical substance", "setting": "yeast gene YDR369C", "result": 0.7},
      {"measurement": "The level of expressed mRNA in the presence of chemical substance/The level of expressed mRNA in the absence of chemical substance", "setting": "yeast gene YEL019C", "result": 1.7},
      {"measurement": "The level of expressed mRNA in the presence of chemical substance/The level of expressed mRNA in the absence of chemical substance", "setting": "yeast gene YEL037C", "result": 1.0},
      {"measurement": "The level of expressed mRNA in the presence of chemical substance/The level of expressed mRNA in the absence of chemical substance", "setting": "yeast gene YER162C", "result": 0.8},
      {"measurement": "The level of expressed mRNA in the presence of chemical substance/The level of expressed mRNA in the absence of chemical substance", "setting": "yeast gene YFL014W", "result": 7.3},
      {"measurement": "The level of expressed mRNA in the presence of chemical substance/The level of expressed mRNA in the absence of chemical substance", "setting": "yeast gene YGL058W", "result": 1.3},
      {"measurement": "The level of expressed mRNA in the presence of chemical substance/The level of expressed mRNA in the absence of chemical substance", "setting": "yeast gene YGL091C", "result": 3.1},
      {"measurement": "The level of expressed mRNA in the presence of chemical substance/The level of expressed mRNA in the absence of chemical substance", "setting": "yeast gene YGL127C", "result": 1.0},
      {"measurement": "The level of expressed mRNA in the presence of chemical substance/The level of expressed mRNA in the absence of chemical substance", "setting": "yeast gene YGL163C", "result": 1.6},
      {"measurement": "The level of expressed mRNA in the presence of chemical substance/The level of expressed mRNA in the absence of chemical substance", "setting": "yeast gene YGL249W", "result": 1.9},
      {"measurement": "The level of expressed mRNA in the presence of chemical substance/The level of expressed mRNA in the absence of chemical substance", "setting": "yeast gene YGR180C", "result": 0.9},
      {"measurement": "The level of expressed mRNA in the presence of chemical substance/The level of expressed mRNA in the absence of chemical substance", "setting": "yeast gene YGR231C", "result": 2.2},
      {"measurement": "The level of expressed mRNA in the presence of chemical substance/The level of expressed mRNA in the absence of chemical substance", "setting": "yeast gene YGR258C", "result": 1.2},
      {"measurement": "The level of expressed mRNA in the presence of chemical substance/The level of expressed mRNA in the absence of chemical substance", "setting": "yeast gene YHR164C", "result": 1.3},
      {"measurement": "The level of expressed mRNA in the presence of chemical substance/The level of expressed mRNA in the absence of chemical substance", "setting": "yeast gene YIL036W", "result": 1.1},
      {"measurement": "The level of expressed mRNA in the presence of chemical substance/The level of expressed mRNA in the absence of chemical substance", "setting": "yeast gene YIL072W", "result": 2.0},
      {"measurement": "The level of expressed mRNA in the presence of chemical substance/The level of expressed mRNA in the absence of chemical substance", "setting": "yeast gene YIL143C", "result": 1.0},
      {"measurement": "The level of expressed mRNA in the presence of chemical substance/The level of expressed mRNA in the absence of chemical substance", "setting": "yeast gene YIL153W", "result": 1.0},
      {"measurement": "The level of expressed mRNA in the presence of chemical substance/The level of expressed mRNA in the absence of chemical substance", "setting": "yeast gene YIR002C", "result": 1.1},
      {"measurement": "The level of expressed mRNA in the presence of chemical substance/The level of expressed mRNA in the absence of chemical substance", "setting": "yeast gene YJL026W", "result": 1.0},
      {"measurement": "The level of expressed mRNA in the presence of chemical substance/The level of expressed mRNA in the absence of chemical substance", "setting": "yeast gene YJR046W", "result": 1.0},
      {"measurement": "The level of expressed mRNA in the presence of chemical substance/The level of expressed mRNA in the absence of chemical substance", "setting": "yeast gene YJR052W", "result": 1.4},
      {"measurement": "The level of expressed mRNA in the presence of chemical substance/The level of expressed mRNA in the absence of chemical substance", "setting": "yeast gene YKL145W", "result": 1.0},
      {"measurement": "The level of expressed mRNA in the presence of chemical substance/The level of expressed mRNA in the absence of chemical substance", "setting": "yeast gene YLR103C", "result": 1.0},
      {"measurement": "The level of expressed mRNA in the presence of chemical substance/The level of expressed mRNA in the absence of chemical substance", "setting": "yeast gene YLR233C", "result": 1.1},
      {"measurement": "The level of expressed mRNA in the presence of chemical substance/The level of expressed mRNA in the absence of chemical substance", "setting": "yeast gene YLR288C", "result": 1.2},
      {"measurement": "The level of expressed mRNA in the presence of chemical substance/The level of expressed mRNA in the absence of chemical substance", "setting": "yeast gene YML032C", "result": 1.0},
      {"measurement": "The level of expressed mRNA in the presence of chemical substance/The level of expressed mRNA in the absence of chemical substance", "setting": "yeast gene YML058W", "result": 1.1},
      {"measurement": "The level of expressed mRNA in the presence of chemical substance/The level of expressed mRNA in the absence of chemical substance", "setting": "yeast gene YMR035W", "result": 1.3},
      {"measurement": "The level of expressed mRNA in the presence of chemical substance/The level of expressed mRNA in the absence of chemical substance", "setting": "yeast gene YMR072W", "result": 1.2},
      {"measurement": "The level of expressed mRNA in the presence of chemical substance/The level of expressed mRNA in the absence of chemical substance", "setting": "yeast gene YMR096W", "result": 4.7},
      {"measurement": "The level of expressed mRNA in the presence of chemical substance/The level of expressed mRNA in the absence of chemical substance", "setting": "yeast gene YMR284W", "result": 1.2},
      {"measurement": "The level of expressed mRNA in the presence of chemical substance/The level of expressed mRNA in the absence of chemical substance", "setting": "yeast gene YNL213C", "result": 1.8},
      {"measurement": "The level of expressed mRNA in the presence of chemical substance/The level of expressed mRNA in the absence of chemical substance", "setting": "yeast gene YNL250W", "result": 1.6},
      {"measurement": "The level of expressed mRNA in the presence of chemical substance/The level of expressed mRNA in the absence of chemical substance", "setting": "yeast gene YNL261W", "result": 1.4},
      {"measurement": "The level of expressed mRNA in the presence of chemical substance/The level of expressed mRNA in the absence of chemical substance", "setting": "yeast gene YNL312W", "result": 1.1},
      {"measurement": "The level of expressed mRNA in the presence of chemical substance/The level of expressed mRNA in the absence of chemical substance", "setting": "yeast gene YOL043C", "result": 1.5},
      {"measurement": "The level of expressed mRNA in the presence of chemical substance/The level of expressed mRNA in the absence of chemical substance", "setting": "yeast gene YOR005C", "result": 1.2},
      {"measurement": "The level of expressed mRNA in the presence of chemical substance/The level of expressed mRNA in the absence of chemical substance", "setting": "yeast gene YOR386W", "result": 0.9},
      {"measurement": "The level of expressed mRNA in the presence of chemical substance/The level of expressed mRNA in the absence of chemical substance", "setting": "yeast gene YPL022W", "result": 0.9},
      {"measurement": "The level of expressed mRNA in the presence of chemical substance/The level of expressed mRNA in the absence of chemical substance", "setting": "yeast gene YPL164C", "result": 0.9},
      {"measurement": "The level of expressed mRNA in the presence of chemical substance/The level of expressed mRNA in the absence of chemical substance", "setting": "yeast gene YPL194W", "result": 1.1},
      {"measurement": "The level of expressed mRNA in the presence of chemical substance/The level of expressed mRNA in the absence of chemical substance", "setting": "yeast gene YPR025C", "result": 1.3}
    ]}
  ]
}
